Reference: PubChem BioAssay (NCI)
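Growth conditions: 96-well plates. Treatment: test compound, 48 hours, 5 concentrations. Analysis: linear interpolation between bracketing concentrations; unreached endpoints set to highest concentration. The concentration for 50% growth inhibition is given as GI50. TGI: total growth inhibition.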

Key:
Assay in all cases: growth of human tumour cells (NCI), 48 h
SN12C renal = test system: SN12C renal
MOLT-4 leukemia = test system: MOLT-4 leukemia
OVCAR-8 ovarian = test system: OVCAR-8 ovarian
786-0 renal = test system: 786-0 renal
HOP-62 NSCLC = test system: HOP-62 NSCLC
A498 renal = test system: A498 renal
RPMI-8226 leukemia = test system: RPMI-8226 leukemia
M14 melanoma = test system: M14 melanoma
UO-31 renal = test system: UO-31 renal
CAKI-1 renal = test system: CAKI-1 renal
K-562 leukemia = test system: K-562 leukemia
SNB-19 CNS = test system: SNB-19 CNS
HL-60(TB) leukemia = test system: HL-60(TB) leukemia
HCT-116 colon = test system: HCT-116 colon
SF-295 CNS = test system: SF-295 CNS
MCF7 breast = test system: MCF7 breast
OVCAR-5 ovarian = test system: OVCAR-5 ovarian
SK-OV-3 ovarian = test system: SK-OV-3 ovarian
UACC-257 melanoma = test system: UACC-257 melanoma
SR leukemia = test system: SR leukemia
MDA-MB-435 = test system: MDA-MB-435
NCI/ADR-RES ovarian = test system: NCI/ADR-RES ovarian
U251 CNS = test system: U251 CNS
MALME-3M melanoma = test system: MALME-3M melanoma
SF-539 CNS = test system: SF-539 CNS
HCT-15 colon = test system: HCT-15 colon
SK-MEL-28 melanoma = test system: SK-MEL-28 melanoma
DU-145 prostate = test system: DU-145 prostate
KM12 colon = test system: KM12 colon
NCI-H226 lung = test system: NCI-H226 lung
NCI-H460 lung = test system: NCI-H460 lung
CCRF-CEM leukemia = test system: CCRF-CEM leukemia
OVCAR-4 ovarian = test system: OVCAR-4 ovarian
HT29 colon = test system: HT29 colon
SW-620 colon = test system: SW-620 colon
IGROV1 ovarian = test system: IGROV1 ovarian
PC-3 prostate = test system: PC-3 prostate
ACHN renal = test system: ACHN renal
TK-10 renal = test system: TK-10 renal
OVCAR-3 ovarian = test system: OVCAR-3 ovarian
NCI-H23 lung = test system: NCI-H23 lung
SF-268 CNS = test system: SF-268 CNS
LOX IMVI melanoma = test system: LOX IMVI melanoma
SK-MEL-2 melanoma = test system: SK-MEL-2 melanoma
COLO 205 colon = test system: COLO 205 colon
NCI-H522 lung = test system: NCI-H522 lung
T-47D breast = test system: T-47D breast
SK-MEL-5 melanoma = test system: SK-MEL-5 melanoma
HOP-92 NSCLC = test system: HOP-92 NSCLC
EKVX NSCLC = test system: EKVX NSCLC
A549 NSCLC = test system: A549 NSCLC
UACC-62 melanoma = test system: UACC-62 melanoma
BT-549 breast = test system: BT-549 breast
SNB-75 CNS = test system: SNB-75 CNS
HS 578T breast = test system: HS 578T breast
HCC-2998 colon = test system: HCC-2998 colon
MDA-MB-231 breast = test system: MDA-MB-231 breast

In the case of C=C(CBr)CCCOCc1ccccc1, the TGI (SN12C renal) was 57.3 µM, the TGI (MOLT-4 leukemia) was > 100 µM and the TGI (OVCAR-8 ovarian) was 32.2 µM. For the same compound, the TGI (786-0 renal) was > 100 µM, the TGI (HOP-62 NSCLC) was 48.6 µM and the TGI (A498 renal) was > 100 µM. The TGI (RPMI-8226 leukemia) was 64.7 µM, the TGI (M14 melanoma) was 31.9 µM and the TGI (UO-31 renal) was 26.8 µM. The TGI (CAKI-1 renal) was 18.2 µM, the TGI (K-562 leukemia) was > 100 µM and the TGI (SNB-19 CNS) was > 100 µM. For the same compound, the TGI (HL-60(TB) leukemia) was 72.6 µM, the TGI (HCT-116 colon) was > 100 µM and the TGI (SF-295 CNS) was > 100 µM. For the same compound, the TGI (MCF7 breast) was 77.1 µM, the TGI (OVCAR-5 ovarian) was 33.3 µM and the TGI (SK-OV-3 ovarian) was > 100 µM. For the same compound, the TGI (UACC-257 melanoma) was > 100 µM, the TGI (SR leukemia) was 89.8 µM and the TGI (MDA-MB-435) was 88.2 µM. The TGI (NCI/ADR-RES ovarian) was 40 µM, the TGI (U251 CNS) was > 100 µM and the TGI (MALME-3M melanoma) was 41.7 µM. For the same compound, the TGI (SF-539 CNS) was 34.8 µM, the TGI (HCT-15 colon) was 68.2 µM and the TGI (SK-MEL-28 melanoma) was > 100 µM. For the same compound, the TGI (DU-145 prostate) was > 100 µM, the TGI (KM12 colon) was 33.7 µM and the TGI (NCI-H226 lung) was 41.5 µM. For the same compound, the TGI (NCI-H460 lung) was 35.3 µM, the TGI (CCRF-CEM leukemia) was > 100 µM and the TGI (OVCAR-4 ovarian) was 38.2 µM. The TGI (HT29 colon) was 39.2 µM, the TGI (SW-620 colon) was > 100 µM and the TGI (IGROV1 ovarian) was 44.3 µM. The TGI (PC-3 prostate) was 39.8 µM, the TGI (ACHN renal) was 27.3 µM and the TGI (TK-10 renal) was 36.3 µM. It also gave a TGI (OVCAR-3 ovarian) of 37.6 µM, a TGI (NCI-H23 lung) of 30.9 µM and a TGI (SF-268 CNS) of 32.5 µM. For the same compound, the TGI (LOX IMVI melanoma) was 92.9 µM, the TGI (SK-MEL-2 melanoma) was 38 µM and the TGI (COLO 205 colon) was 54 µM. The TGI (NCI-H522 lung) was 49.1 µM, the TGI (T-47D breast) was > 100 µM and the TGI (SK-MEL-5 melanoma) was 35.9 µM. For the same compound, the TGI (HOP-92 NSCLC) was 49.8 µM, the TGI (EKVX NSCLC) was 46.6 µM and the TGI (A549 NSCLC) was > 100 µM. For the same compound, the TGI (UACC-62 melanoma) was 47.2 µM and the TGI (BT-549 breast) was 35.4 µM.
Compound CCCC[C@H](NC(=O)[C@H]1CCCCN1C)C(=O)N(C)[C@H](C[C@@H](OC(C)=O)c1nc(C(=O)N[C@@H](Cc2ccccc2)C[C@H](C)C(=O)OCC)cs1)C(C)C has a GI50 (SN12C renal) of 0.00583 µM, a TGI (SN12C renal) of 6.55 µM and a GI50 (MOLT-4 leukemia) of 0.00382 µM. The TGI (MOLT-4 leukemia) was 20.5 µM, the GI50 (OVCAR-8 ovarian) was 0.00528 µM and the TGI (OVCAR-8 ovarian) was > 33.3 µM. For the same compound, the GI50 (786-0 renal) was < 0.00333 µM, the TGI (786-0 renal) was 6.27 µM and the GI50 (HOP-62 NSCLC) was < 0.00333 µM. The TGI (HOP-62 NSCLC) was 8.61 µM, the GI50 (A498 renal) was < 0.00333 µM and the TGI (A498 renal) was 0.00869 µM. The GI50 (RPMI-8226 leukemia) was < 0.00333 µM, the TGI (RPMI-8226 leukemia) was 4.85 µM and the GI50 (M14 melanoma) was < 0.00333 µM. The TGI (M14 melanoma) was 3.62 µM, the GI50 (UO-31 renal) was 0.0188 µM and the TGI (UO-31 renal) was 11.9 µM. For the same compound, the GI50 (K-562 leukemia) was < 0.00333 µM, the TGI (K-562 leukemia) was 11.1 µM and the GI50 (SNB-75 CNS) was < 0.00333 µM. The TGI (SNB-75 CNS) was 10.8 µM, the GI50 (SNB-19 CNS) was < 0.00333 µM and the TGI (SNB-19 CNS) was > 33.3 µM. For the same compound, the GI50 (HL-60(TB) leukemia) was < 0.00333 µM, the TGI (HL-60(TB) leukemia) was 0.00341 µM and the GI50 (HS 578T breast) was < 0.00333 µM. The TGI (HS 578T breast) was 8.49 µM, the GI50 (HCT-116 colon) was < 0.00333 µM and the TGI (HCT-116 colon) was > 33.3 µM. The GI50 (SF-295 CNS) was < 0.00333 µM, the TGI (SF-295 CNS) was 4.34 µM and the GI50 (MCF7 breast) was < 0.00333 µM. The TGI (MCF7 breast) was > 33.3 µM, the GI50 (OVCAR-5 ovarian) was 0.00833 µM and the TGI (OVCAR-5 ovarian) was 21.6 µM. For the same compound, the GI50 (SK-OV-3 ovarian) was < 0.00333 µM, the TGI (SK-OV-3 ovarian) was 13 µM and the GI50 (UACC-257 melanoma) was 3.56 µM. The TGI (UACC-257 melanoma) was 10.6 µM, the GI50 (SR leukemia) was < 0.00333 µM and the TGI (SR leukemia) was 6.79 µM. The GI50 (MDA-MB-435) was < 0.00333 µM, the TGI (MDA-MB-435) was < 0.00333 µM and the GI50 (NCI/ADR-RES ovarian) was 0.0828 µM. The TGI (NCI/ADR-RES ovarian) was > 33.3 µM, the GI50 (U251 CNS) was < 0.00333 µM and the TGI (U251 CNS) was 8.58 µM. It also gave a GI50 (MALME-3M melanoma) of 1.08 µM, a TGI (MALME-3M melanoma) of 7.1 µM and a GI50 (SF-539 CNS) of 0.00346 µM. For the same compound, the TGI (SF-539 CNS) was 0.024 µM, the GI50 (HCT-15 colon) was 0.00521 µM and the TGI (HCT-15 colon) was 5.73 µM. The GI50 (DU-145 prostate) was < 0.00333 µM, the TGI (DU-145 prostate) was > 33.3 µM and the GI50 (KM12 colon) was < 0.00333 µM. For the same compound, the TGI (KM12 colon) was > 33.3 µM, the GI50 (NCI-H226 lung) was 0.0857 µM and the TGI (NCI-H226 lung) was 19.1 µM. The GI50 (NCI-H460 lung) was < 0.00333 µM, the TGI (NCI-H460 lung) was 5.65 µM and the GI50 (CCRF-CEM leukemia) was < 0.00333 µM. The TGI (CCRF-CEM leukemia) was 6.21 µM, the GI50 (OVCAR-4 ovarian) was 0.476 µM and the TGI (OVCAR-4 ovarian) was > 33.3 µM. For the same compound, the GI50 (HT29 colon) was < 0.00333 µM, the TGI (HT29 colon) was 3.6 µM and the GI50 (SW-620 colon) was < 0.00333 µM. The TGI (SW-620 colon) was > 33.3 µM, the GI50 (IGROV1 ovarian) was 0.00343 µM and the TGI (IGROV1 ovarian) was > 33.3 µM. For the same compound, the GI50 (PC-3 prostate) was < 0.00333 µM, the TGI (PC-3 prostate) was > 33.3 µM and the GI50 (HCC-2998 colon) was < 0.00333 µM. The TGI (HCC-2998 colon) was 8.39 µM, the GI50 (MDA-MB-231 breast) was < 0.00333 µM and the TGI (MDA-MB-231 breast) was 0.341 µM. The GI50 (TK-10 renal) was 7.86 µM, the TGI (TK-10 renal) was > 33.3 µM and the GI50 (OVCAR-3 ovarian) was < 0.00333 µM. The TGI (OVCAR-3 ovarian) was 12.2 µM, the GI50 (NCI-H23 lung) was 0.00641 µM and the TGI (NCI-H23 lung) was > 33.3 µM. For the same compound, the GI50 (SF-268 CNS) was < 0.00333 µM, the TGI (SF-268 CNS) was 12.1 µM and the GI50 (LOX IMVI melanoma) was < 0.00333 µM. The TGI (LOX IMVI melanoma) was 5.64 µM, the GI50 (SK-MEL-2 melanoma) was < 0.00333 µM and the TGI (SK-MEL-2 melanoma) was 13.7 µM. For the same compound, the GI50 (COLO 205 colon) was < 0.00333 µM, the TGI (COLO 205 colon) was 0.00712 µM and the GI50 (NCI-H522 lung) was < 0.00333 µM. The TGI (NCI-H522 lung) was 0.775 µM, the GI50 (SK-MEL-5 melanoma) was < 0.00333 µM and the TGI (SK-MEL-5 melanoma) was 0.0473 µM. It also gave a GI50 (HOP-92 NSCLC) of 1.23 µM, a TGI (HOP-92 NSCLC) of 27.3 µM and a GI50 (EKVX NSCLC) of 0.00739 µM. The TGI (EKVX NSCLC) was > 33.3 µM, the GI50 (A549 NSCLC) was 0.00444 µM and the TGI (A549 NSCLC) was > 33.3 µM. The GI50 (UACC-62 melanoma) was < 0.00333 µM, the TGI (UACC-62 melanoma) was 24.1 µM and the GI50 (BT-549 breast) was < 0.00333 µM. It also gave a TGI (BT-549 breast) of 0.133 µM.
